According to patent US10858305B2, “Perillyl alcohol-3-bromopyruvate conjugate and methods of treating cancer” (NeOnc Technologies, Inc., priority 2016, dated 2020):
“Also recorded” adds a separate entry of the source. Like-named read-outs stand apart in the source and are kept apart here.

Columns and labels:
[1] = test system: HCT116 cells; assay: FACS analysis for annexin V and propidium iodide; type: cell-based, human; conditions: for incorporation of PI (necrosis) versus annexin V (apoptosis): 2, 4 or 8 hours of treatment; for earliest detection of shift to PI-positive quadrant after onset of treatment: HCT116, 30 μM; for PI-positive cells at 8 hours: HCT116, 8 hours
Description: (A) FACS analysis of HCT116 cells after treatment for 2, 4, or 8 hours with vehicle, 30 μM 3-BP, 30 μM NEO218, or 1 μM staurosporine (STS). […] (B) Western blot analysis of apoptotic markers. In the top section, MDA-MB-231 cells were treated with 30 μM NEO218 or 1 μM STS for various time points. In the lower section, HCT116 cells were treated with the indicated concentrations of 3-BP, NEO218, or STS for 16 hours. In all cases cell lysates were prepared and analyzed for the well-established apoptotic markers cleaved PARP, cleaved (i.e., activated) caspase 7 (cl. C-7), and phosphorylated (i.e., active) H2AX. Actin was used as a loading control. (C) HCT116 cells were pretreated with 50 μM Z-VAD-FMK for one hour, followed by the addition of increasing concentrations of 3-BP or NEO218. Cell viability was determined by MTT assay 24 hours later. Data points are averages from n=3.
In the absence of indications that apoptotic mechanisms played a significant role in cell death induced by NEO218, necrosis was investigated as a potential key mechanism. The distinction between apoptotic and necrotic cell death was made by measuring annexin V staining (a marker of apoptosis) and PI (propidium iodide) staining (a marker of necrosis) of drug-treated cells, in comparison to non-drug-treated cells (as a control). Measurements of annexin V and PI were done by FACS analysis after 2, 4, or 8 hours of treatment. Cells were treated with NEO218, 3-BP, and staurosporine (individually), and incorporation of propidium iodide (PI, a marker of necrotic cell death) or annexin V (a marker for apoptosis) was determined by fluorescence-activated cell sorting.
The results are organized in FIG. 8 as follows: no treatment (top row), 3-BP (second row), NEO218 (third row), and staurosporine (bottom row).
Characterization of cell death was performed by flow cytometry using the Alexa Fluor® 488 Annexin V/Dead Cell Apoptosis kit (Thermo Fisher Scientific). This kit contains recombinant, green fluorophore-conjugated annexin V, which reacts with apoptotic cells, and DNA-binding, red-fluorescent propidium iodide (PI), which is impermeant to live and apoptotic cells, but stains dead cells. The different cell populations can be distinguished by green fluorescence (apoptotic cells), red fluorescence (necrotic/dead cells), and no fluorescence (live cells) during flow cytometry with 488 nm laser excitation. Control or drug-treated cells were processed as per manufacturer's instructions, followed by flow cytometry of 10,000 cells per point with an LSR II (BD Biosciences, San Jose, Calif.) at the USC Flow Cytometry Core Facility.

[2] = test system: HCT116 cells; assay: Colony formation assay in HCT116 cells; type: cell-based, human; conditions: for IC50: Homo sapiens, HCT-116, HCT116, 48 hours drug then 10-14 days, read-out: half-maximal effect, CFA
Description: (§1) (A) MTT assay was performed after 24 hours. […] (B) LDH assay was performed after […]. LDH release by untreated cells was set to 1. Relative fold increase is shown (n=3).
Depending on the cell line (and plating efficiency), 250-800 cells were seeded into each well of a 6-well plate and treated as described in detail previously. After 12-16 days, colonies (defined as groups of >50 cells) were visualized by staining for 4 hours with 1% methylene blue (in methanol), and then were-counted. Experiments were repeated at least once, but usually more often under different conditions.

[3] = biological target: GAPDH (Homo sapiens, UniProt P04406); assay: GAPDH activity assay after 30 minutes drug treatment of living cells; type: cell-based; design: endogenous in cells
Description: (§2) (A) HCT116 cells were treated with 40 μM 3-BP or NEO218 in the presence or absence of 1 mM NAC, 1 mM GSH, or 50 mM methyl-pyruvate (or sodium pyruvate, which produced similar outcomes). Cell viability was determined 24 hours later by MTT assay. (B) HCT116 cells were treated with 30 or 100 μM 3-BP or NEO218. After 30 minutes, cell lysates were prepared and analyzed for GAPDH activity. (C) Lysates from non-drug-treated MDA-MB-231 cells were mixed with 3-BP or NEO218 in the presence or absence of NAC or GSH at the concentrations mentioned in A. After 1 hour of incubation, GAPDH activity was determined. GAPDH activity in the absence of drug treatment was set at 100% (corresponding to 0.06 units/min×10^6 cells).
Enzymatic activity of GAPDH in vitro was measured with the Colorimetric GAPDH Assay kit (ScienCell Research Laboratories, Carlsbad, Calif.). This assay is based on the oxidization of β-NADH to β-NAD in the presence of 3-phosphoglyceric acid, ATP and GAPDH. GAPDH activity is determined by assaying the rate of NADH oxidation, which is proportional to the reduction in absorbance at 340 nm over time (ΔA340 nm/min). One hundred thousand cells were lysed in 100 μL cell lysis buffer and incubated with the above components. Changes in absorbance over 10 minutes were calculated and normalized to untreated controls. Data are presented as percentage of controls. […]

[4] = test system: MDA-MB-231 cells; assay: MTT short-term toxicity assay in MDA-MB-231 cells; type: cell-based, human
Description: as §1
(A) MTT assay was performed after 24 hours. Viability of untreated cells was set at 100% (data points are averages of 2 experiments). (B) LDH assay was performed after 24 hours. LDH release by untreated cells was set to 1. Relative fold increase is shown (averages from 2 experiments). (C) Representative photos show typical colony formation after initial 48 hours of drug treatment. In all cases of combination treatment with 3-BP mixed with […] (3-BP+POH), the indicated concentrations refer to each individual drugs, i.e., 100 μM 3-BP+POH means that 100 μM 3-BP was combined with 100 μM POH.
Methylthiazoletetrazolium (MTT) assays were performed as described earlier.

[5] = test system: HCT116 cells; assay: MTT assay with or without supplemental pyruvate; type: cell-based, human; conditions: HCT116, MTT after 24 hours
Description: as §2
To test this hypothesis, HCT116 cells were treated with increasing concentrations of NEO218 and 3-BP (individually) in the presence or absence of 10 mM pyruvate. Viability of cells was determined 24 hours later by MTT cell viability assay.

Chain of GAPDH (P04406 whole entry): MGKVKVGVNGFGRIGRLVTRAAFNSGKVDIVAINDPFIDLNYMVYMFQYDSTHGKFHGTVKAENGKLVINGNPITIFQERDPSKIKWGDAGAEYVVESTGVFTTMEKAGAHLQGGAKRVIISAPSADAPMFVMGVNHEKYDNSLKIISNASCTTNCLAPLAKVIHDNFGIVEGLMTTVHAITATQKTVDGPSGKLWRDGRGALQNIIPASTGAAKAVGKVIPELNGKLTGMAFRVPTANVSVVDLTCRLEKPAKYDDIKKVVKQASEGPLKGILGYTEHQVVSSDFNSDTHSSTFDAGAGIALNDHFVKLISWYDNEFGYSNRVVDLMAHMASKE

Compound	incorporation of PI (necrosis) versus annexin V (apoptosis) [1]	time to initiation of cell death ([1]; FIG. 8 and LDH time course of FIG. 4)	earliest detection of shift to PI-positive quadrant after onset of treatment [1]	PI-positive cells at 8 hours [1]	IC50 [2]	IC50 ([3]; HCT116 cells treated 30 minutes, then lysed, read-out: IC50 (GAPDH activity))	potency in MDA-MB-231 compared with HCT116 / with 3-BP alone ([4]; MTT, LDH and CFA assays)	effect of supplemental pyruvate on drug-induced cell death [5]	incorporation of PI (necrosis) versus annexin V (apoptosis) ([1]; listed as 3-GP)	block of colony formation in CFA ([2]; HCT116, 40 μM)	IC50 [3]	IC50 ([4]; Homo sapiens, MDA-MB-231, 24 hours, read-out: effective concentration (half-maximal), MTT assay)
C=C(C)[C@@H]1CC=C(COC(=O)C(=O)CBr)CC1 [NEO218, 3-bromo-2-oxo-propionic acid 4-isopropenyl-cyclohex-1-enylmethyl ester]	move straight from the bottom left quadrant to the upper right quadrant; also recorded: vigorous incorporation of PI, but very little annexin V	1 to 2 h	2 h	the majority of cells was PI-positive	~3 µM	< 30 µM	maintained the same high potency	no protection at all when pyruvate was added; also recorded: pyruvate had no effect on viability at all				
O=C(O)C(=O)CBr [3-BP, 3-bromopyruvate]	vigorous incorporation of PI, but very little annexin V		2 h	the majority of cells was PI-positive	~3 µM			profound protection; also recorded: excess pyruvate was able to completely prevent cell death	move straight from the bottom left quadrant to the upper right quadrant	99%	< 30 µM	~220 µM
